Experimental data taken from ChEMBL document CHEMBL1142781, “Chemical modification of the naphthoyl 3-position of JWH-015: in search of a fluorescent probe to the cannabinoid CB2 receptor” (Bioorg Med Chem Lett, 2005).

Key:
Cannabinoid receptor 2 [1] = target: T1, Cannabinoid receptor 2 (Homo sapiens, UniProt P34972); test: In vitro inhibitory activity towards human cannabinoid receptors 2 using fluorescence assay
Cannabinoid receptor 2 [2] = target: T1, Cannabinoid receptor 2; test: Percentage ([35S]GTP-gamma-S binding was determined from basal towards human cannabinoid receptor 2 at 1 uM concentration […]; type: functional
Cannabinoid receptor 2 [3] = target: T1, Cannabinoid receptor 2; test: In vitro inhibitory activity towards human cannabinoid receptors 2 using fluorescence assay at 10 uM concentration; parameters: scale not given: the % may be the effect or the level left

T1 sequence (P34972 whole entry): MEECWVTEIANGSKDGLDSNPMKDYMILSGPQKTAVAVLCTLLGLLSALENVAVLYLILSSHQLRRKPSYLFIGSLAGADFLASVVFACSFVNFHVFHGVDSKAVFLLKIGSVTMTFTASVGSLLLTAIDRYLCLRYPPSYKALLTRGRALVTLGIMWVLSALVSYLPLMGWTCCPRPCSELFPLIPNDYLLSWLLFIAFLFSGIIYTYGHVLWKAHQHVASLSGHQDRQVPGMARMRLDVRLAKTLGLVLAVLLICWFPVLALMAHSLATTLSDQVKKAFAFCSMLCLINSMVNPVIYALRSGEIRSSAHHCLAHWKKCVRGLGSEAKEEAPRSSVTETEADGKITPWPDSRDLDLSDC

| Compound | Ki (Cannabinoid receptor 2 [1]) [nM] | Activity (Cannabinoid receptor 2 [2]) [%] | Activity (Cannabinoid receptor 2 [3]) [%] |
| --- | --- | --- | --- |
| CCCn1c(C)c(C(=O)c2cc([N+](=O)[O-])cc3ccccc23)c2ccccc21 | 143 | 134 | – |
| CCCn1c(C)c(C(=O)c2cccc3ccccc23)c2ccccc21 | – | 142 | – |
| CCCn1c(C)c(C(=O)c2cc(NC(=O)CNc3ccc([N+](=O)[O-])c4nonc34)cc3ccccc23)c2ccccc21 | – | – | 25 |
| CCCn1c(C)c(C(=O)c2cc(NC(=O)CN)cc3ccccc23)c2ccccc21 | 420 | – | – |
| CCCn1c(C)c(C(=O)c2cc(N)cc3ccccc23)c2ccccc21 | 191 | 151 | – |
